What was measured:
[1] = test system: ACC; assay: Phosphorylation of ACC in liver of mice with high-fat diet-induced fatty liver, western blotting; type: in vivo; conditions: oral, 10 mg/kg/day or 30 mg/kg/day for 2 days; liver tissue; FIG. 11b
Experimental: (§1) 3 days after the diet was fed, the mice were fed the high-fat diet containing safflower oil while being orally administered JC1-40 and JC1-42, which had been diluted with 0.5% carboxymethyl cellulose, at a dose of 10 mg/kg/day or 30 mg/kg/day for 2 days. 5 days after the diet was fed, the mice were sacrificed to extract liver tissues therefrom, and the expression of proteins was analyzed by western blotting analysis. That is, after treatment, each liver tissue was homogenized in a lysis buffer containing 50 mM NaCl, 50 mM Tris pH 7.4, 5 mM EDTA, 1% NP-40, and a protease inhibitor, and then centrifuged to obtain a total cell lysate. 20 μg to 30 μg of proteins collected from the total cell lysate was subjected to 7% to 9% SDS-PAGE, and was transferred to a polyvinylidene difluoride membrane (Millipore, Bedford, Mass., USA). […] Immunoreactive proteins were detected with Amersham ECL western blotting detection reagents using an HRP-conjugated secondary antibody (Zymed Lab). Protein concentrations were quantified by BCA (Pierce) analysis, and the expression of α-tubulin was monitored as a control. […]

[2] = test system: ACC; assay: Phosphorylation of ACC in HepG2 cells, western blotting; type: cell-based, human; conditions: 100 μM, 24 hours; FIGS. 7a and 7b
Experimental: HepG2 cells (1×10^6 cells/well) were seeded on a 60-dish, and cultured overnight in a DMEM containing 10% FBS. The HepG2 cells were maintained at 37° C. in a humidification thermostat containing 5% CO2 and 95% air. After culturing, the HepG2 cells were treated with 100 μM JC1-38 and JC1-40 (or 100 μM JC1-38 and JC1-42), 2 mM metfornin, and 2 mM AICIR for 24 hours. After treatment, the expression of RORα and phosphorylated ACC (pACC) proteins was analyzed by western blotting, and the expression of α-tubulin was monitored as a control. The results thereof are illustrated in FIGS. 7a and 7b.

[3] = test system: LXRα; assay: Expression of LXRα protein in liver of mice with high-fat diet-induced fatty liver, western blotting; type: in vivo; conditions: oral, 10 mg/kg/day or 30 mg/kg/day for 2 days; liver tissue; FIG. 11b
Experimental: as §1

[4] = test system: SREBP-1; assay: Expression of SREBP-1 protein in liver of mice with high-fat diet-induced fatty liver, western blotting; type: in vivo; conditions: oral, 10 mg/kg/day or 30 mg/kg/day for 2 days; liver tissue; FIG. 11b
Experimental: as §1

[5] = test system: mice with high-fat diet-induced fatty liver; assay: Intrahepatic triglyceride, intrahepatic fat accumulation and body weight in mice with high-fat diet-induced fatty liver; type: in vivo; conditions: oral, 10 mg/kg/day or 30 mg/kg/day for 2 days; for amount of intrahepatic triglyceride, which had been increased by the high-fat diet: FIG. 12a; for intrahepatic fat accumulation (Oil Red O staining): FIG. 12b; for body weights of the mice, which had been increased by the high-fat diet: FIG. 12c
Experimental: 3 days after the diet was fed, the mice were fed the high-fat diet containing safflower oil while being orally administered JC1-40 and JC142, which had been diluted with 0.5% carboxymethyl cellulose, at a dose of 10 mg/kg/day or 30 mg/kg/day for 2 days. 5 days after the diet was fed, the mice were sacrificed to extract liver tissues therefrom, and the amounts of intrahepatic triglycerides were measured using an EnzyChrom™ triglyceride assay kit (BioAssay Systems).
In addition, Oil Red O staining, which enables the identification of intrahepatic fat accumulation, was performed on the extracted liver tissues of the mice.

[6] = test system: HepG2 cells; assay: Lipid accumulation in hepatocytes, Nile red staining and flow cytometry; type: cell-based, human; conditions: 50 μM with oleic acid/palmitic acid mixture, 3 days; FIGS. 10a and 10b
Experimental: HepG2 cells (3×10^5 cells/well) were seeded on a 60-dish and cultured overnight in a DMEM containing 10% FBS. The HepG2 cells were maintained at 37° C. in a humidification thermostat containing 5% CO2 and 95% air. After culturing, the HepG2 cells were treated with 50 μM JC1-40 (or JC1-42) and, as a lipid generation inducing material, a fatty acid mixture prepared by mixing 0.5 mM oleic acid and 0.5 mM palmitic acid in a ratio of 2:1 (5 mM oleic acid and 5 mM palmitic acid were mixed in a medium containing 1% fatty acid-free bovine serum albumin (BSA) and diluted to the final concentration prior to use) for 3 days. After 3 days, cell lysates were collected, and stained with 1 μg/ml of Nile red at room temperature for 15 minutes, and the concentration of triglycerides was measured by a flow cytometry method using a FACSCalibur™ machine (BD Biosciences). Fluorescence emission was measured at a wavelength between 500 nm and 580 nm. The results thereof are illustrated in FIGS. 10a and 10b.

[7] = test system: FAS; assay: Expression of FAS protein in liver of mice with high-fat diet-induced fatty liver, western blotting; type: in vivo; conditions: oral, 10 mg/kg/day or 30 mg/kg/day for 2 days; liver tissue; FIG. 11b
Experimental: as §1

[8] = test system: AMPK; assay: Phosphorylation of AMPK in liver of mice with high-fat diet-induced fatty liver, western blotting; type: in vivo; conditions: oral, 10 mg/kg/day or 30 mg/kg/day for 2 days; liver tissue; FIG. 11b
Experimental: as §1

[9] = test system: white mice, common carotid artery damaged by balloon catheter; assay: Inner vascular proliferation after balloon dilatation; type: in vivo; conditions: oral, 5 mg/kg, 14 days after balloon dilatation; H&E staining; FIG. 15
Experimental: To verify the inhibition of angiostenosis by JC1-40, white mice were administered JC1-40 for […], followed by balloon dilatation and subsequent additional administration of JC1-40 for 14 days. An experimental group was orally administered JC1-40 at a dose of 5 mg/kg (in 0.5% carboxymethyl cellulose, 2 ml/kg) (n=5), and a control was orally administered 0.5% carboxymethlycellulose at a dose of […] (n=5). The balloon dilatation was performed as follows. The cervical portion of each with mouse was incised to expose a common carotid artery, and the internal branch was tied at a site where the common carotid artery branches into the external branch and the internal branch. The external branch was partially incised, and then ballooning was performed three times with a 2F Fogarty balloon catheter to damage blood vessels. Subsequently, the balloon catheter was removed, and the incision site was tied. After balloon dilatation, the white mice were administered the drug for 14 days and then sacrificed to cut the site in artery that included the damaged region. The obtained blood vessels of each of the JC1-40 experimental group and the control were sectioned, the inner vascular layer thereof was subjected to Hematoxylin and Eosin (H&E) staining, and then the effect of JC1-40 on the inhibition of inner vascular proliferation was examined, and the results thereof are illustrated in FIG. 15. […]

CNC(=S)NCc1ccc(OCc2ccccc2)cc1 [Compound 40, 1-(4-benzyloxy-benzyl)-3-methyl-thiourea]
phosphorylation of ACC [1]: increased | phosphorylation of ACC [2]: increased | expression of LXRα protein, which had been increased by the high-fat diet [3]: decreased | expression of SREBP-1 protein, which had been increased by the high-fat diet [4]: decreased | amount of intrahepatic triglyceride, which had been increased by the high-fat diet [5]: decreased | intrahepatic fat accumulation (Oil Red O staining) [5]: decreased | body weights of the mice, which had been increased by the high-fat diet [5]: decreased | lipid accumulation in hepatocytes [6]: significantly decreased | expression of FAS protein, which had been increased by the high-fat diet [7]: decreased | phosphorylation of AMPK [8]: increased | proliferation of the inner vascular layer by balloon dilatation [9]: inhibited

CNC(=S)NCc1ccc(Oc2ccccc2)cc1 [Compound 42, 1-(4-phenoxy-benzyl)-3-methyl-thiourea]
phosphorylation of ACC [1]: increased | phosphorylation of ACC [2]: increased | expression of LXRα protein, which had been increased by the high-fat diet [3]: decreased | expression of SREBP-1 protein, which had been increased by the high-fat diet [4]: decreased | amount of intrahepatic triglyceride, which had been increased by the high-fat diet [5]: decreased | intrahepatic fat accumulation (Oil Red O staining) [5]: decreased | body weights of the mice, which had been increased by the high-fat diet [5]: decreased | lipid accumulation in hepatocytes [6]: significantly decreased | expression of FAS protein, which had been increased by the high-fat diet [7]: decreased | phosphorylation of AMPK [8]: increased
